Assay results from the CheMixHub ionic liquid set.

Experiment: xn = mol fraction of the nth substance listed
Conditions: 100 kPa

CCC(=O)[O-].COCCn1cc[n+](C)c1 + O
Conditions	electrical conductivity [S/m]	viscosity [mPa·s]
288.15 K, x1 = 0.8302	0.318	81.8
288.15 K, x1 = 0.8877	0.241	96.6
288.15 K, x1 = 1	0.109	125.5
293.15 K, x1 = 0.9474	0.222	84.9
298.15 K, x1 = 0.8302	0.426	46.94
298.15 K, x1 = 0.9474	0.285	63.84
298.15 K, x1 = 1	0.228	70.11
303.15 K, x1 = 0.8579	0.483	39.8
313.15 K, x1 = 0.9474	0.588	31.35
318.15 K, x1 = 0.8579	0.839	20
318.15 K, x1 = 0.9474	0.726	24.42

CO + C[N+](C)(C)CCC[N+]1(C)CCCCC1.N#C[N-]C#N.N#C[N-]C#N
x2 = 0
Conditions	viscosity [mPa·s]
293.15 K	0.584
323.15 K	0.395

CCCCCCCCCCCCCC[P+](CCCCCC)(CCCCCC)CCCCCC.[c-]1nc[nH]n1 + CCCCCC[n+]1ccn(C)c1.O=S(=O)([N-]S(=O)(=O)C(F)(F)F)C(F)(F)F
viscosity [mPa·s]
Conditions	278.15 K	283.15 K	288.15 K	293.15 K	298.15 K	303.15 K	308.15 K	313.15 K	318.15 K	323.15 K
x2 = 0.1	5162	3302	2162	1458	1013	720	524	389	296	229
x2 = 0.195	4777	3062	2000	1349	930	664	484	359	273	211
x2 = 0.282	4094	2612	1719	1162	810	579	422	314	239	185
x2 = 0.378	3093	1992	1317	900	633	456	337	253	194	152
x2 = 0.493	2209	1445	970	677	485	355	267	204	159	127
x2 = 0.6	1397	940	641	452	329	245	186	145	115	93
x2 = 0.693	910	619	431	308	227	171	132	104	83	67
x2 = 0.792	612	424	301	220	165	127	99	79	64	53
x2 = 0.893	325	235	174	132	103	81	65	54	–	–
